# From patent US20050186274A1, “Multilayer tablet” (Boehringer Ingelheim International GmbH, priority 2004, published 2005)
# How the values were obtained:
# [1] = Dissolution rate of HCTZ from tablet matrix; assay type: physicochemical; conditions: from a dissolving matrix as compared with dissolution from a disintegrating tablet
# [2] = physiological pH range of the gastrointestinal tract, pH 1 to 7; free acid form; cited from earlier work
dissolution rate of HCTZ [1],Compound,solubility in aqueous systems [2]
reduced dissolution rate,"NS(=O)(=O)c1cc2c(cc1Cl)NCNS2(=O)=O [HCTZ, 6-chloro-3,4-dihydro-2H-1,2,4-benzothiadiazine-7-sulfonamide-1,1-dioxide]",
,"CCCc1nc2c(C)cc(-c3nc4ccccc4n3C)cc2n1Cc1ccc(-c2ccccc2C(=O)O)cc1 [Telmisartan, 4′-[2-n-propyl-4-methyl-6-(1-methylbenzimidazol-2-yl)-benzimidazol-1-ylmethyl]-biphenyl-2-carboxylic acid]",very poor solubility
